# What was measured:
# Sonnenblume = experiment: Field test of chemical sterilisation of sunflower pollen; type: in vivo; conditions: V. Periode der Organogenese
# From the text: (§1) Die gametozide Aktivitat der erfindungsgemäßen Sterilisationsmittel war im Feldversuch in verschiedenen bodenklimatischen Zonen mit Teilstücken von 10 m^2 Größe in drei- bis viermaliger Wiederholung festgestellt. Jedes Sterilisationsmittel wurde mindenstens 5 Jahre lang geprüft.
# (§2) Die Entwicklung der Perioden der Organogenese wird zytologisch überwacht. Die Behandlung von Pflanzen mit dem Sterilisationsmittel erfolgt am Anfang der fünften Periode der Organogenese nach Kupermann.
# Zur Kontrolle der chemischen Sterilisation des Sonnenblumenpollens werden für jede Verbindung 45 behandelte Pflanzen jeder Wiederholung benutzt, wobei 15 Pflanzen von denen zwecks Selbsbestäubung isoliert werden, Blütenkorbchen anderer 15 Pflanzen mit einem Pollengemisch, gesammelt von 20 bis 25 behandelten isolierten Körbchen, bestäubt werden, und 15 Pflanzen für freie Bestäubung gelassen werden, damit das Ansetzen von Achänen mit dem Pollen der väterlichen Form kontrolliert werden kann.
# Man beurteilt die Pollensterilität von Pflanzen der Sonnenblume nach der Pollenfertilität und -keimfähigkeit, nach den morphologischen Besonderheiten von Spermien und nach der Fähigkeit von Achänen zum Ansetzen bei der Bestäubung der behandelten isolierten Pflanzen mit dem Pollen der unbehandelten väterlichen Form. Die Lebensfähigkeit der Eizelle wird nach der Samenbildung von behandelten Pflanzen bei freier Bestäubung mit der väterlichen Form bestimmt.
# Man behandelt die Sonnenblume Sorte BHNNMK 8931 (WNIIMK 8931) in der V. Periode der Organogenese mit 0,5%iger wäßriger Emulsion von 4-Karboxybutyldezylsulfid, mit 1%iger Emulsion der δ, δ' -Sulfonyldivaleriansäure, 2%iger Emulsion von Bis(2-äthylhexyläther) der δ, δ' -Thiodivaleriansäure; die Sonnenblume der Linie BK-373 (WK-373) mit 2%iger Emulsion von Bis(2-äthylhexyläther) der δ δ' --Thiodivaleriansäure, mit 0,2%iger Emulsion von Bis(di--n-butyläther) der δ, δ' -Thiodivaleriansäure; die Sonnenblume der Linie BK=364 (WK-365) mit 2%iger wäßriger Emulsion von Bis(2-äthylhexyläther) der δ, δ' -Thirodivaleriansäure, mit 0,2%iger Emulsion von Bis(di-n-butyläther) der δ, δ' -Thiodivaleriansäure. Die Emulsion enthält 0,1 Masse% Kalziumalkylbenzolsulfonat mit 12 bis 14 Kohlenstoffatomen und 0,01 Masse% Dimethylsulfoxid. Als Kontrolle dienen Pflanzen, behandelt mit einem Verdünner ohne Sterilisationsmittel. Die Prüfergebnisse sind in der Tabelle 17 angegeben. […] Periode der Organogenese erhalten.
# Toxicity in animal test = conditions: rat, in vivo; für Ratten
# Description: Alle erfindungsgemäßen Thiokarbonsäuren oder ihre De- rivate, die als Sterilisationsmittel zur Verwendung kommen, waren auf die Toxizität im Tierversuch geprüft. Die Prüfergebnisse haben gezeigt, daß die angegebenen Verbindungen von schwacher oder mittlerer Toxizität sind. So beträgt beispielsweise LD50 mehr als 2000 mg/kg für Ratten bei Bis (2-äthylhexyläther) der δ, δ'-Thiodivaleriansäure, bei anderen Verbindungen liegen die LD50 -Werte auf dem gleichen Niveau.
# Tritikale = experiment: Field test of gametocidal activity (sterilisation of anthers), triticale; type: in vivo; conditions: V. Periode der Organogenese, 1,5%ige wäßrige Emulsion
# From the text: as §1, §2
# (§3) Mit dem Ährenschieben verwirklicht man die Isolierung von Hauptähren und anderen Stockwerken in Pergamentbeuteln. Bei Weizen und Tritikale werden Einzelisolatoren benutzt. Bei Roggen schließt man je Ähre 5 bis 7 verschiedene nebeneinander befindliche Pflanzen unter einen gemeinsamen Isolator ein. Bei Hierse wird jede Rispe getrennt isoliert. Der Sterilitätsprozentsatz (X) für Weizen, Roggen, Tritikale und Hirse wird nach der Formel [formula] ermittelt.
# (§4) Die Kornzahl in nicht isolierten Ähren von Kontrollpflanzen wird bedingt für 100 % Ansetzen bei freier Bestäubung angenommen.
# (§5) Um zuverlässige Angaben zu erhalten, verwendet man 20 bis 25 Isolatoren jeder Wiederholung für Weizen und Tritikale, 10 .bis 15 Isolatoren jeder Wiederholung für Roggen und Hirse.
# Pflanzen von Tritikale PRAG 109 werden in der V. Periode der Organogenese (nach Kupermann) mit 1,5%iger wäßriger Emulsion von Bis(di-n-butyläther) der δ, δ' -Thiodivaleriansäure, 4-Kaxboxybutyldezylsulfid, Bis(2-Äthylhexyläther) der δ, δ' -Thiodivaleriansäure behandelt. Die Emulsion enthält 0,1 Masse% Kalziumalkylbenzolsulfonat mit 12 bis 14 Kohlenstoffatomen und 0,01 Masse% Tetrahydrofuran. Der Verbrauch an Präparat beträgt 15 kg/ha. Als Kontrolle dienen Pflanzen, behandelt mit einem Verdünner ohne Sterilisationsmittel. Die Prüfergebnisse sind in der Tabelle 12 angegeben. […] Periode der Organogenese erhalten.
# Pflanzen von Tritikale der Sorte Amphidiploid 206 werden in der V. Periode der Organogenese (nach Kupermann) mit 1,5%iger wäßriger Emulsion von Natriumsalz der δ, δ'-Thiodivaleriansäure, δ, δ' -Sulfonyldivaleriansäure Kaliumsalz der d , δ' -Sulfonyldivaleriansäure behandelt. Die Emulsion enthalt 0,1 Masse% Kalziumalkylbenzolsulfonat mit 12 bis 14 Kohlenstoffatomen und 0,01 Masse% Dodezylsulfat. Der Verbrauch an Präparat beträgt 9 kg/ha. Als Kontrolle dienen Pflanzen, behandelt mit einem Verdünner ohne Sterilisationsmittel. Die Prüfergebnisse sind in der Tabelle 13 angegeben. […] Periode der Organogenese erhalten.
# tetraploidem Roggen = experiment: Field test of gametocidal activity (sterilisation of anthers), tetraploid rye; type: in vivo; conditions: Sorte Belta; V. Periode der Organogenese; 1%ige wäßrige Emulsion; 6 kg/ha
# From the text: as §1, §2, §3, §4, §5
# Pflanzen von tetraploidem Roggen Sorte Belta werden in der V. Periode der Organogenese (nach Kupermann) mit 1%iger wäßriger Emulsion von d, δ' -Thiodivaleriansäure, Natriumsalz der δ, δ' -Thiodivaleriansäure, δ, δ' -Sulfonylvaleriansäure, Natriumsalz der δ, δ' -Sulfonyldivaleriansäure, Kaliumsalz der d, δ' -Sulfonyldivaleriansäure, Bis(di-n-butyläther) der δ, δ' -Thiodivaleriansäure, Bis(2-Äthylhexyläther) der δ, δ'-Thiodivaleriansäure, 4-Karboxybutyldezylsulfid behandelt. Die Emulsion enthält 0,1 Masse% Kalziumalkylbenzolaulfonat und 0,01 Masse% Dimethylsulfoxid. Der Verbrauch an Präparat beträgt 6 kg/ha. Als Kontrolle dienen Pflanzen, behandelt mit einem Verdünner ohne Sterilisationsmittel. Die Prüfergebnisse sind in der Tabelle 11 angegeben. […] Periode der Organogese erhalten.
# [1] = Linie BK-373 (WK-373), Beispiel 78: 2%ige, 79: 0,2%ige Emulsion
# [2] = Sorte ВНИИМК 8931 (WNIIMK 8931), Beispiel 75: 0,5%ige, 76: 1%ige, 77: 2%ige Emulsion
# [3] = Linie BK-364 (WK-364), Beispiel 80: 2%ige, 81: 0,2%ige Emulsion
# [4] = Sorte Amphidiploid 206, 9 kg/ha
compound,measurement,setting,value
"CCCCC(CC)COC(=O)CCCCSCCCCC(=O)OCC(CC)CCCC (centres unmarked) [Beispiel 78, Bis(2-äthylhexyläther) der δ δ' --Thiodivaleriansäure]",Prozentsatz der Sterilität,Sonnenblume; [1],"100,0%"
same,Prozentsatz des Ansetzens von Achänen bei freier Bestäubung,Sonnenblume; [1],"60,7%"
"CCCCC(CC)COC(=O)CCCCSCCCCC(=O)OCC(CC)CCCC (centres unmarked) [Bis (2-äthylhexyläther) der δ, δ'-Thiodivaleriansäure]",LD50,Toxicity in animal test,> 2000 mg/kg
"CCCCC(CC)COC(=O)CCCCSCCCCC(=O)OCC(CC)CCCC (centres unmarked) [Beispiel 77, Bis(2-äthylhexyläther) der δ, δ' -Thiodivaleriansäure]",Prozentsatz der Sterilität,Sonnenblume; [2],"100,0%"
same,Prozentsatz des Ansetzens von Achänen bei freier Bestäubung,Sonnenblume; [2],"82,1%"
"CCCCOC(=O)CCCCSCCCCC(=O)OCCCC [Beispiel 81, Bis(di-n-butyläther) der δ, δ' -Thiodivaleriansäure]",Prozentsatz der Sterilität,Sonnenblume; [3],"100,0%"
same,Prozentsatz des Ansetzens von Achänen bei freier Bestäubung,Sonnenblume; [3],"59,3%"
"CCCCC(CC)COC(=O)CCCCSCCCCC(=O)OCC(CC)CCCC (centres unmarked) [Beispiel 61, Bis(2-Äthylhexyläther) der δ, δ' -Thiodivaleriansäure]",Anzahl von Körnern der Ähre bei freier Bestäubung,"Tritikale; PRAG 109, 15 kg/ha","40,8"
same,Anzahl von Körnern der Ähre im Isolator,"Tritikale; PRAG 109, 15 kg/ha","0,0"
same,Prozentsatz der Sterilität,"Tritikale; PRAG 109, 15 kg/ha","100,0%"
same,Prozentsatz des Ansetzens von Körnern bei freier Bestäubung,"Tritikale; PRAG 109, 15 kg/ha","89,1%"
"CCCCOC(=O)CCCCSCCCCC(=O)OCCCC [Beispiel 79, Bis(di--n-butyläther) der δ, δ' -Thiodivaleriansäure]",Prozentsatz der Sterilität,Sonnenblume; [1],"100,0%"
same,Prozentsatz des Ansetzens von Achänen bei freier Bestäubung,Sonnenblume; [1],"62,7%"
"CCCCOC(=O)CCCCSCCCCC(=O)OCCCC [Beispiel 56, Bis(di-n-butyläther) der δ, δ' -Thiodivaleriansäure]",Anzahl von Körnern der Ähre bei freier Bestäubung,tetraploidem Roggen,"38,2"
same,Anzahl von Körnern der Ähre im Isolator,tetraploidem Roggen,"0,0"
same,Prozentsatz der Sterilität,tetraploidem Roggen,"100,0%"
same,Prozentsatz des Ansetzens von Körnern bei freier Bestäubung,tetraploidem Roggen,"86,7%"
"CCCCCCCCCCSCCCCC(=O)O [Beispiel 60, 4-Kaxboxybutyldezylsulfid]",Anzahl von Körnern der Ähre bei freier Bestäubung,"Tritikale; PRAG 109, 15 kg/ha","42,3"
same,Anzahl von Körnern der Ähre im Isolator,"Tritikale; PRAG 109, 15 kg/ha","0,0"
same,Prozentsatz der Sterilität,"Tritikale; PRAG 109, 15 kg/ha","100,0%"
same,Prozentsatz des Ansetzens von Körnern bei freier Bestäubung,"Tritikale; PRAG 109, 15 kg/ha","92,4%"
"O=C(O)CCCCS(=O)(=O)CCCCC(=O)O [Beispiel 76, δ, δ' -Sulfonyldivaleriansäure]",Prozentsatz der Sterilität,Sonnenblume; [2],"100,0%"
same,Prozentsatz des Ansetzens von Achänen bei freier Bestäubung,Sonnenblume; [2],"71,6%"
"CCCCCCCCCCSCCCCC(=O)O [Beispiel 75, 4-Karboxybutyldezylsulfid]",Prozentsatz der Sterilität,Sonnenblume; [2],"100,0%"
same,Prozentsatz des Ansetzens von Achänen bei freier Bestäubung,Sonnenblume; [2],"82,9%"
"O=C(O)CCCCS(=O)(=O)CCCCC(=O)O [Beispiel 63, δ, δ' -Sulfonyldivaleriansäure]",Anzahl von Körnern der Ähre bei freier Bestäubung,Tritikale; [4],"30,1"
same,Anzahl von Körnern der Ähre im Isolator,Tritikale; [4],"0,1"
same,Prozentsatz der Sterilität,Tritikale; [4],"99,7%"
same,Prozentsatz des Ansetzens von Körnern bei freier Bestäubung,Tritikale; [4],"82,2%"
"CCCCOC(=O)CCCCSCCCCC(=O)OCCCC [Beispiel 59, Bis(di-n-butyläther) der δ, δ' -Thiodivaleriansäure]",Anzahl von Körnern der Ähre bei freier Bestäubung,"Tritikale; PRAG 109, 15 kg/ha","40,1"
same,Anzahl von Körnern der Ähre im Isolator,"Tritikale; PRAG 109, 15 kg/ha","0,3"
same,Prozentsatz der Sterilität,"Tritikale; PRAG 109, 15 kg/ha","99,3%"
same,Prozentsatz des Ansetzens von Körnern bei freier Bestäubung,"Tritikale; PRAG 109, 15 kg/ha","87,6%"
"CCCCCCCCCCSCCCCC(=O)O [Beispiel 58, 4-Karboxybutyldezylsulfid]",Anzahl von Körnern der Ähre bei freier Bestäubung,tetraploidem Roggen,"40,3"
same,Anzahl von Körnern der Ähre im Isolator,tetraploidem Roggen,"0,0"
same,Prozentsatz der Sterilität,tetraploidem Roggen,"100,0%"
same,Prozentsatz des Ansetzens von Körnern bei freier Bestäubung,tetraploidem Roggen,"91,2%"
"CCCCC(CC)COC(=O)CCCCSCCCCC(=O)OCC(CC)CCCC (centres unmarked) [Beispiel 80, Bis(2-äthylhexyläther) der δ, δ' -Thirodivaleriansäure]",Prozentsatz der Sterilität,Sonnenblume; [3],"100,0%"
same,Prozentsatz des Ansetzens von Achänen bei freier Bestäubung,Sonnenblume; [3],"67,9%"
"O=C(O)CCCCSCCCCC(=O)O [Beispiel 62, Natriumsalz der δ, δ'-Thiodivaleriansäure]",Anzahl von Körnern der Ähre bei freier Bestäubung,Tritikale; [4],"32,5"
same,Anzahl von Körnern der Ähre im Isolator,Tritikale; [4],"0,9"
same,Prozentsatz der Sterilität,Tritikale; [4],"97,2%"
same,Prozentsatz des Ansetzens von Körnern bei freier Bestäubung,Tritikale; [4],"88,8%"
"O=C(O)CCCCS(=O)(=O)CCCCC(=O)O [Beispiel 64, Kaliumsalz der d , δ' -Sulfonyldivaleriansäure]",Anzahl von Körnern der Ähre bei freier Bestäubung,Tritikale; [4],"29,8"
same,Anzahl von Körnern der Ähre im Isolator,Tritikale; [4],"0,0"
same,Prozentsatz der Sterilität,Tritikale; [4],"100,0%"
same,Prozentsatz des Ansetzens von Körnern bei freier Bestäubung,Tritikale; [4],"81,4%"

# Reference: patent EP0362382A1, “METHOD OF STERILIZING PLANT POLLEN” (VSESOJUZNY NAUCHNO-ISSLEDOVATELSKY INST. SELSKOKHOZYAISTV. …, priority 1988, dated 1989)
